{
  "source": "patent US4160828A",
  "about": "“Analgesic phosphinyl compounds and compositions” (Hoechst Aktiengesellschaft, priority 1978, dated 1979)",
  "key": {"mice": {"system": "mice", "assay": "Toxicity by oral administration to mice", "format": "in vivo, mouse", "settings": "versus Comparison Compound of the same test series", "method": "(§1) The physiological activity of the compounds prepared in the Examples has been tested using various test methods and compared with the activities of various structurally similar commercial products. In each case, testing was carried out with equimolar quantities of the test compounds.\nThe toxicity was measured by oral administration to 50 mice."}, "[1]": {"assay": "Analgesic activity / overall physiological activity, in words", "format": "in vivo", "settings": "test not specified; versus Comparison Compound C", "method": "as §1\nThe analgesic activity was determined by the Writhing Test in the mouse using the method of E. Siegmund et al (Proceed. Soc. --Exp. Biol. Med. 95(1957) Page 729) and by the Randall-Selitto Test in the rat using the method of Randall and Selitto (Arch. Int. Pharmacodyn. 111(1957) Page 409).\nThe anti-inflammatory effect was measured by the carrageenin oedema test on rat paws using the method of Winter et al (Proceed. Soc. Exp. Biol. Med. 111(1962) Page 544) and in test series III) and also by the adjuvant arthritis test in the rat according to Pearson et al (Arthrit. Rheumat. 2(1959) page 440)."}, "rat [2]": {"system": "rat", "assay": "Adjuvant arthritis test in the rat (Pearson et al), anti-inflammatory effect", "format": "in vivo", "settings": "sub-chronic; for Adjuvant arthritis: test series III, equimolar quantities; for adjuvant arthritis test compared with comparison compound: versus Comparison Compound C", "method": "(§2) The physiological activity of the compounds prepared in the Examples has been tested using various test methods and compared with the activities of various structurally similar commercial products. In each case, testing was carried out with equimolar quantities of the test compounds. The anti-inflammatory effect was measured by the carrageenin oedema test on rat paws using the method of Winter et al (Proceed. Soc. Exp. Biol. Med. 111(1962) Page 544) and in test series III) and also by the adjuvant arthritis test in the rat according to Pearson et al (Arthrit. Rheumat. 2(1959) page 440)."}, "mouse": {"system": "mouse", "assay": "Writhing Test in the mouse (Siegmund et al), analgesic activity", "format": "in vivo", "settings": "versus Comparison Compound of the same test series", "method": "(§3) The physiological activity of the compounds prepared in the Examples has been tested using various test methods and compared with the activities of various structurally similar commercial products. In each case, testing was carried out with equimolar quantities of the test compounds. The analgesic activity was determined by the Writhing Test in the mouse using the method of E. Siegmund et al (Proceed. Soc. --Exp. Biol. Med. 95(1957) Page 729) and by the Randall-Selitto Test in the rat using the method of Randall and Selitto (Arch. Int. Pharmacodyn. 111(1957) Page 409)."}, "[3]": {"system": "carrageenin oedema on rat paws", "assay": "Carrageenin oedema test on rat paws (Winter et al), anti-inflammatory effect", "format": "in vivo", "settings": "rat paw; versus Comparison Compound of the same test series", "method": "as §2"}, "[4]": {"settings": "prior-art compound; cited from earlier work"}, "[5]": {"settings": "prior-art compound; cited from earlier work", "remark": "listed apart in the source"}, "rat [6]": {"system": "rat", "assay": "Randall-Selitto Test in the rat, analgesic activity", "format": "in vivo", "settings": "versus Comparison Compound of the same test series", "method": "as §3"}},
  "data": [
    {"smiles": "CP(C)(=O)COC(=O)c1ccccc1Nc1cccc(C(F)(F)F)c1", "note": "[Compound 1a, dimethylphosphinylmethyl N-(3-trifluoromethyl-phenyl)-anthranilate]", "values": [
      {"measurement": "toxicity compared with comparison compound", "setting": "mice", "value": "substantially more favourable than that of Compound C"},
      {"measurement": "analgesic activities compared with comparison compound", "setting": "[1]", "value": "clearly improved over that of Comparison Compound C"},
      {"measurement": "Adjuvant arthritis", "setting": "rat [2]", "value": "5-10"},
      {"measurement": "adjuvant arthritis test compared with comparison compound", "setting": "rat [2]", "value": "considerably better than that of Comparision Compound C"}
    ]},
    {"smiles": "CP(C)(=O)COC(=O)c1ccccc1Nc1ccnc2cc(Cl)ccc12", "note": "[Compound 2c, 3-(dimethylphosphinyl)-methyl N-(7-chloro-4-quinolyl)-anthranilate]", "values": [
      {"measurement": "Writhing test compared with comparison compound", "setting": "mouse", "value": "substantially better than the Comparison compound"},
      {"measurement": "Carrageenin oedema test / anti-inflammatory activity compared with comparison compound", "setting": "[3]", "value": "show an improvement compared with Compound A"}
    ]},
    {"smiles": "CP(C)(=O)CCCOC(=O)c1ccccc1Nc1ccnc2cc(Cl)ccc12", "note": "[Compound 4, 3-(dimethylphosphinyl)-propyl N-(7-chloro-4-quinolyl)-anthranilate]", "values": [
      {"measurement": "Carrageenin oedema test / anti-inflammatory activity compared with comparison compound", "setting": "[3]", "value": "show an improvement compared with Compound A"}
    ]},
    {"smiles": "Cc1cccc(Nc2ccccc2C(=O)OCCCP(C)(C)=O)c1C", "note": "[Compound 1d, Dimethylphosphinyl-propyl N-(2,3-dimethylphenyl)-anthranilate]", "values": [
      {"measurement": "Writhing test compared with comparison compound", "setting": "mouse", "value": "substantial improvement over the Comparison Compound"},
      {"measurement": "toxicity compared with comparison compound", "setting": "mice", "value": "more favourable toxicity than Compound B"},
      {"measurement": "Carrageenin oedema test / anti-inflammatory activity compared with comparison compound", "setting": "[3]", "value": "more or less equivalent to these of the commercial compound"}
    ]},
    {"smiles": "CP(C)(=O)CCCOC(=O)c1ccccc1Nc1c(C(F)(F)F)cnc2ccccc12", "note": "[Compound 1f, 3-(Dimethylphosphinyl)-propyl N-(3-trifluoromethyl-4-quinolyl)-anthranilate]", "values": [
      {"measurement": "analgesic activities compared with comparison compound", "setting": "[1]", "value": "clearly improved over that of Comparison Compound C"}
    ]},
    {"smiles": "O=C(O)c1ccccc1Nc1cccc(C(F)(F)F)c1", "note": "[Compound C, Flufenamic acid, reference compound]", "values": [
      {"measurement": "Adjuvant arthritis", "setting": "rat [2]", "value": "25-50"}
    ]},
    {"smiles": "O=C(OCC(O)CO)c1ccccc1Nc1ccnc2cc(Cl)ccc12", "note": "(stereo not drawn) [2,3-dihydroxypropyl N-(7-chloro-4-quinolyl)-anthranilate]", "values": [
      {"measurement": "solubility in water, prior art", "setting": "[4]", "value": "insoluble in water"},
      {"measurement": "analgesic activity, prior art", "setting": "[5]", "value": "known to have analgesic activity"}
    ]},
    {"smiles": "CP(C)(=O)CCCOC(=O)c1ccccc1Nc1cccc(C(F)(F)F)c1", "note": "[Compound 1e, Dimethylphosphinyl-propyl N-(3-trifluoromethylphenyl)-anthranilate]", "values": [
      {"measurement": "toxicity compared with comparison compound", "setting": "mice", "value": "substantially more favourable than that of Compound C"},
      {"measurement": "Adjuvant arthritis", "setting": "rat [2]", "value": "10-25"},
      {"measurement": "adjuvant arthritis test compared with comparison compound", "setting": "rat [2]", "value": "considerably better than that of Comparision Compound C"}
    ]},
    {"smiles": "Cc1cccc(Nc2ccccc2C(=O)OCP(C)(C)=O)c1C", "note": "[Compound 1c, Dimethylphosphinyl-methyl N-(2,3-dimethylphenyl)-anthranilate]", "values": [
      {"measurement": "toxicity compared with comparison compound", "setting": "mice", "value": "more favourable toxicity than Compound B"},
      {"measurement": "Carrageenin oedema test / anti-inflammatory activity compared with comparison compound", "setting": "[3]", "value": "more or less equivalent to these of the commercial compound"},
      {"measurement": "Randall-Selitto test compared with comparison compound", "setting": "rat [6]", "value": "substantial improvement over the Comparison Compound"}
    ]},
    {"smiles": "CP(C)(=O)COC(=O)c1ccccc1Nc1ccnc2c(C(F)(F)F)cccc12", "note": "[Compound 2a, dimethylphosphinylmethyl N-(8-trifluoromethyl-4-quinolyl)-anthranilate]", "values": [
      {"measurement": "Writhing test compared with comparison compound", "setting": "mouse", "value": "substantially better than the Comparison compound"},
      {"measurement": "toxicity compared with comparison compound", "setting": "mice", "value": "lower than that of Compound A"}
    ]},
    {"smiles": "CP(C)(=O)COC(=O)c1cccnc1Nc1cccc(C(F)(F)F)c1", "note": "[Compound 2d, 3-(dimethylphosphinyl)-methyl 2-(3-trifluoromethylanilino)-nicotinate]", "values": [
      {"measurement": "toxicity compared with comparison compound", "setting": "mice", "value": "more than twice that of Comparision Compouhd D"},
      {"measurement": "Carrageenin oedema test / anti-inflammatory activity compared with comparison compound", "setting": "[3]", "value": "practically almost equal to that of the Comparison Compound"}
    ]}
  ]
}
